This assay relates to fungi. Kind of assay: Antifungal activity of the amide form.

In the case of `NC(=O)/C(=C1/SCC(c2ccc(Cl)cc2Cl)S1)n1ccnc1` (single isomer, unassigned) [amide form, [R-(E)]-α-[4-(2,4-dichlorophenyl)-1,3-dithiolan-2-ylidene]-1H-imidazole-1-acetamide], the antifungal activity entry is given as “low”.

For the origin of these results see patent publication US9145401B2, “Amide derivative and use of the same as stability index of a luliconazole pharmaceutical formulation” (POLA PHARMA INC., priority 2012, dated 2015).
